According to ChEMBL document CHEMBL4308841, “Synthesis, in vitro antiproliferative activity, and kinase inhibitory effects of pyrazole-containing diarylureas and diarylamides” (Eur J Med Chem, 2018):

Assays:
HT-29 = experiment: Growth inhibition of human HT-29 cells assessed as cell growth at 0.1 uM incubated for 48 hrs by sulforhodamine B assay relative to control; type: functional; details: HT-29, 48 h, read-out: Activity
MCF7 = experiment: Growth inhibition of human MCF7 cells assessed as cell growth at 1 uM incubated for 48 hrs by sulforhodamine B assay relative to control; type: functional; details: MCF7, 48 h, read-out: Activity
SNB-75 = experiment: Growth inhibition of human SNB75 cells assessed as cell growth at 1 uM incubated for 48 hrs by sulforhodamine B assay relative to control; type: functional; details: SNB-75, 48 h, read-out: Activity
MOLT-4 [1] = experiment: Growth inhibition of human MOLT4 cells assessed as cell growth at 100 uM incubated for 48 hrs by sulforhodamine B assay relative to control; type: functional; details: MOLT-4, 48 h, read-out: Activity
PC-3 = experiment: Growth inhibition of human PC3 cells incubated for 48 hrs by sulforhodamine B assay; type: functional, cell-based; details: PC-3, 48 h
SR = experiment: Growth inhibition of human SR cells assessed as cell growth at 100 uM incubated for 48 hrs by sulforhodamine B assay relative to control; type: functional; details: read-out: Activity
MDA-MB-468 = experiment: Growth inhibition of human MDA-MB-468 cells assessed as cell growth at 0.1 uM incubated for 48 hrs by sulforhodamine B assay relative to control; type: functional; details: MDA-MB-468, 48 h, read-out: Activity
HL-60(TB) = experiment: Growth inhibition of human HL-60(TB) cells assessed as cell growth at 0.1 uM incubated for 48 hrs by sulforhodamine B assay relative to control; type: functional; details: HL-60, 48 h, read-out: Activity
UACC-62 [2] = experiment: Growth inhibition of human UACC62 cells incubated for 48 hrs by sulforhodamine B assay; type: functional, cell-based; details: UACC-62, 48 h
OVCAR-4 [3] = experiment: Growth inhibition of human OVCAR4 cells assessed as cell growth at 1 uM incubated for 48 hrs by sulforhodamine B assay relative to control; type: functional; details: OVCAR-4, 48 h, read-out: Activity
OVCAR-4 [4] = experiment: Growth inhibition of human OVCAR4 cells assessed as cell growth at 0.01 uM incubated for 48 hrs by sulforhodamine B assay relative to control; type: functional; details: OVCAR-4, 48 h, read-out: Activity
NCI-H460 [5] = experiment: Growth inhibition of human NCI-H460 cells incubated for 48 hrs by sulforhodamine B assay; type: functional, cell-based; details: NCI-H460, 48 h
M14 = experiment: Growth inhibition of human M14 cells assessed as cell growth at 0.1 uM incubated for 48 hrs by sulforhodamine B assay relative to control; type: functional; details: M14, 48 h, read-out: Activity
NCI-H460 [6] = experiment: Growth inhibition of human NCI-H460 cells assessed as cell growth at 100 uM incubated for 48 hrs by sulforhodamine B assay relative to control; type: functional; details: NCI-H460, 48 h, read-out: Activity
Malme-3M = experiment: Growth inhibition of human MALME-3M cells incubated for 48 hrs by sulforhodamine B assay; type: functional, cell-based
K562 = experiment: Growth inhibition of human K562 cells incubated for 48 hrs by sulforhodamine B assay; type: functional, cell-based; details: K562, 48 h
MOLT-4 [7] = experiment: Growth inhibition of human MOLT4 cells assessed as cell growth at 1 uM incubated for 48 hrs by sulforhodamine B assay relative to control; type: functional; details: MOLT-4, 48 h, read-out: Activity
MDA-MB-231 = experiment: Growth inhibition of human MDA-MB-231 cells assessed as cell growth at 0.1 uM incubated for 48 hrs by sulforhodamine B assay relative to control; type: functional; details: MDA-MB-231, 48 h, read-out: Activity
HCT-15 = experiment: Growth inhibition of human HCT15 cells assessed as cell growth at 100 uM incubated for 48 hrs by sulforhodamine B assay relative to control; type: functional; details: HCT-15, 48 h, read-out: Activity
HCC 2998 = experiment: Growth inhibition of human HCC2998 cells assessed as cell growth at 100 uM incubated for 48 hrs by sulforhodamine B assay relative to control; type: functional; details: HCC 2998, 48 h, read-out: Activity
LOX IMVI = experiment: Growth inhibition of human LOXIMVI cells assessed as cell growth at 1 uM incubated for 48 hrs by sulforhodamine B assay relative to control; type: functional; details: read-out: Activity
UACC-62 [8] = experiment: Growth inhibition of human UACC62 cells assessed as cell growth at 100 uM incubated for 48 hrs by sulforhodamine B assay relative to control; type: functional; details: UACC-62, 48 h, read-out: Activity
NCI-H522 = experiment: Growth inhibition of human NCI-H522 cells assessed as cell growth at 0.1 uM incubated for 48 hrs by sulforhodamine B assay relative to control; type: functional; details: NCI-H522, 48 h, read-out: Activity
A549 = experiment: Growth inhibition of human A549/ATCC cells assessed as cell growth at 1 uM incubated for 48 hrs by sulforhodamine B assay relative to control; type: functional; details: A549, 48 h, read-out: Activity
NCI-H226 = experiment: Growth inhibition of human NCI-H226 cells assessed as cell growth at 0.1 uM incubated for 48 hrs by sulforhodamine B assay relative to control; type: functional; details: NCI-H226, 48 h, read-out: Activity
U-251 = experiment: Growth inhibition of human U251 cells assessed as cell growth at 1 uM incubated for 48 hrs by sulforhodamine B assay relative to control; type: functional; details: U-251, 48 h, read-out: Activity
KM12 = experiment: Growth inhibition of human KM12 cells incubated for 48 hrs by sulforhodamine B assay; type: functional, cell-based; details: KM12, 48 h
CCRF-CEM = experiment: Growth inhibition of human CCRF-CEM cells incubated for 48 hrs by sulforhodamine B assay; type: functional, cell-based
A498 = experiment: Growth inhibition of human A498 cells assessed as cell growth at 100 uM incubated for 48 hrs by sulforhodamine B assay relative to control; type: functional; details: A498, 48 h, read-out: Activity
[9] = read-out: LC50 (the source's name)
[10] = read-out: pLC50 (the source's name) (converted)

O=C(Nc1cccc(-n2cc(-c3ccncc3)c(-c3cc(O)cc(Cl)c3)n2)c1)Nc1ccc(Cl)c(Cl)c1
growth at 0.1 µM (HT-29): 97% | growth at 1 µM (MCF7): 91% | growth at 1 µM (SNB-75): 63% | growth at 100 µM (MOLT-4 [1]): -10% | IC50 (PC-3): 1.69 µM | GI50 (PC-3; read-out: GI50): 1.59 µM | CC50 (PC-3; [9]): > 100 µM | TGI (PC-3; read-out: TGI): 58.8 µM | GI50 (PC-3; read-out: pGI50 (converted)): 1.7 µM | CC50 (PC-3; [10]): > 100 µM | TGI (PC-3; read-out: pTGI (converted)): 5.62 µM | growth at 100 µM (SR): -30% | growth at 0.1 µM (MDA-MB-468): 85% | growth at 0.1 µM (HL-60(TB)): 100% | IC50 (UACC-62 [2]): 1.69 µM | GI50 (UACC-62 [2]; read-out: GI50): 1.59 µM | CC50 (UACC-62 [2]; [9]): 5.38 µM | TGI (UACC-62 [2]; read-out: TGI): 37.6 µM | GI50 (UACC-62 [2]; read-out: pGI50 (converted)): 1.7 µM | CC50 (UACC-62 [2]; [10]): 8.32 µM | TGI (UACC-62 [2]; read-out: pTGI (converted)): 3.72 µM | growth at 1 µM (OVCAR-4 [3]): 100% | growth at 0.01 µM (OVCAR-4 [4]): 108% | GI50 (NCI-H460 [5]; read-out: GI50): 2.18 µM | CC50 (NCI-H460 [5]; [9]): > 100 µM | TGI (NCI-H460 [5]; read-out: TGI): 61.4 µM | GI50 (NCI-H460 [5]; read-out: pGI50 (converted)): 2.19 µM | CC50 (NCI-H460 [5]; [10]): > 100 µM | TGI (NCI-H460 [5]; read-out: pTGI (converted)): 6.17 µM | growth at 0.1 µM (M14): 93% | growth at 100 µM (NCI-H460 [6]): -48% | GI50 (Malme-3M; read-out: GI50): 1 µM | CC50 (Malme-3M; [9]): > 100 µM | TGI (Malme-3M; read-out: TGI): 54 µM | GI50 (Malme-3M; read-out: pGI50 (converted)): 1.78 µM | CC50 (Malme-3M; [10]): > 100 µM | TGI (Malme-3M; read-out: pTGI (converted)): 5.25 µM | GI50 (K562; read-out: GI50): 2.56 µM | LC50 (K562; read-out: LC50): > 100 µM | TGI (K562; read-out: TGI): > 100 µM | GI50 (K562; read-out: pGI50 (converted)): 2.57 µM | LC50 (K562; read-out: pLC50 (converted)): > 100 µM | TGI (K562; read-out: pTGI (converted)): > 100 µM | growth at 1 µM (MOLT-4 [7]): 84% | growth at 0.1 µM (MDA-MB-231): 85% | growth at 100 µM (HCT-15): -23% | growth at 100 µM (HCC 2998): -55% | growth at 1 µM (LOX IMVI): 83% | growth at 100 µM (UACC-62 [8]): -74% | growth at 0.1 µM (NCI-H522): 92% | growth at 1 µM (A549): 75% | growth at 0.1 µM (NCI-H226): 89% | growth at 1 µM (U-251): 74% | GI50 (KM12; read-out: GI50): 1.5 µM | CC50 (KM12; [9]): 9 µM | TGI (KM12; read-out: TGI): 36.9 µM | GI50 (KM12; read-out: pGI50 (converted)): 1.51 µM | CC50 (KM12; [10]): 9.12 µM | TGI (KM12; read-out: pTGI (converted)): 3.72 µM | GI50 (CCRF-CEM; read-out: GI50): 2.12 µM | CC50 (CCRF-CEM; [9]): > 100 µM | GI50 (CCRF-CEM; read-out: pGI50 (converted)): 2.14 µM | CC50 (CCRF-CEM; [10]): > 100 µM | growth at 100 µM (A498): -79%
